Data set [1] can be described thus: Measurement of Log P values by HPLC on reversed phase columns (EEC directive 79/831 Annex V.A8). The class given is physicochemical. The settings on record: Table 1, compounds of formula (I); method [a]: LC-UV, acidic range, 0.1% formic acid in water and acetonitrile.
The next data set concerns Pyricularia oryzae. Nature of the data set: microbe, parasite or virus in culture. The class given is cell-based. The settings on record: 120 h; for inhibition at 20 ppm: read-out: efficacy (inhibition of fungal growth), 20 ppm of active ingredient, liquid culture, 5 days incubation.
Data set [2] concerns Colletotrichum lindemuthianum. Nature of the data set: Colletotrichum lindemuthianum in vitro cell test. The class given is cell-based. The settings on record: 144 h, liquid culture, 6 days incubation, read-out: efficacy (inhibition of fungal growth); for inhibition at 20 ppm: 20 ppm of active ingredient; for inhibition at 50 µM: 50 μMol/l of active ingredient. Here is the method: (§1) B-7. Colletotrichum lindemuthianum In Vitro Cell Test • Solvent: DMSO • Culture medium: 14.6 g anhydrous D-glucose (VWR), 7.1 g Mycological Peptone (Oxoid), 1.4 g granulated Yeast Extract (Merck), QSP 1 liter • Inoculum: spores suspension Fungicides were solubilized in DMSO and the solution used to prepare the required range of concentrations. […] A spore suspension of C. lindemuthianum was prepared and diluted to the desired spore density. Fungicides were evaluated for their ability to inhibit spores germination and mycelium growth in liquid culture assay. The compounds were added in the desired concentration to the culture medium with spores. After 6 days incubation, fungi-toxicity of compounds was determined by spectrometric measurement of mycelium growth. Inhibition of fungal growth was determined by comparing the absorbance values in wells containing the fungicides with the absorbance in control wells without fungicides.

Data set [3] deals with Botrytis cinerea. Nature of the data set: Botrytis cinerea in vitro cell test. The class given is cell-based. The settings on record: 144 h, liquid culture, 6 days incubation, read-out: efficacy (inhibition of fungal growth); for inhibition at 20 ppm: 20 ppm of active ingredient; for inhibition at 50 µM: 50 μMol/l of active ingredient. How it is done:
B-9. Botrytis cinerea In Vitro Cell Test • Solvent: DMSO • Culture medium: 1 g KH2PO4 (VWR), 1 g K2HPO4 (VWR), 0.5 g Urea (VWR), 3 g KNO3 (Prolabo), 10 g saccharose (VWR), 0.5 g MgSO4, 7H2O (Sigma), 0.07 g CaCl2, 2H2O (Prolabo), 0.2 mg MnSO4, H2O (Sigma), 0.6 mg CuSO4, 5H2O (Sigma), 7.9 mg ZnSO4, 7H2O (Sigma), 0.1 mg H3BO3 (Merck), 0.14 mg NaMoO4, 2H2O (Sigma), 2 mg thiamine (Sigma), 0.1 mg biotine (VWR), 4 mg FeSO4, 7H2O (Sigma), QSP 1 liter • Inoculum: spore suspension Fungicides were solubilized in DMSO and the solution used to prepare the required range of concentrations. […] A spore suspension of B. cinerea was prepared and diluted to the desired spore density. Fungicides were evaluated for their ability to inhibit spore germination and mycelium growth in liquid culture assay. The compounds were added in the desired concentration to the culture medium with spores. After 6 days incubation, fungi-toxicity of compounds was determined by spectrometric measurement of mycelium growth. Inhibition of fungal growth was determined by comparing the absorbance values in wells containing the fungicides with the absorbance in control wells without fungicides.

In another data set the test system is Pyrenophora teres. In words: Pyrenophora teres in vitro cell test. The settings on record: 144 h, liquid culture, 6 days incubation, read-out: efficacy (inhibition of fungal growth). The class given is cell-based. How it is done:
as §1, with “B-8. Pyrenophora teres In” for “B-7. Colletotrichum lindemuthianum In”, “Inoculum: spore” for “Inoculum: spores”, “of P. teres” for “of C. lindemuthianum”, “inhibit spore” for “inhibit spores”

Data set [4] concerns Botrytis cinerea. In words: In vivo preventive test on Botrytis cinerea (grey mould). The settings on record: 500 ppm of active ingredient, sprayed on young gherkin or cabbage plants 24 h before inoculation, evaluated 4 to 5 days after inoculation, read-out: efficacy. How it is done: The active ingredients were made soluble and homogenized in a mixture of Dimethyl sulfoxide/Acetone//Tween® 80 and then diluted in water to the desired concentration. The young plants of gherkin or cabbage were treated by spraying the active ingredient prepared as described above. Control plants were treated only with an aqueous solution of Acetone/Dimethyl sulfoxide/Tween® 80. After 24 hours, the plants were contaminated by spraying the leaves with an aqueous suspension of Botrytis cinerea spores.

For another data set, the system named is Fusarium culmorum. In words: Fusarium culmorum in vitro cell test. The class given is cell-based. The settings on record: 120 h, 50 μMol/l of active ingredient, liquid culture, 5 days incubation, read-out: efficacy (inhibition of fungal growth). Here is the method:
B-10. Fusarium culmorum In Vitro Cell Test • Solvent: DMSO • Culture medium: 1 g KH2PO4 (VWR), 1 g K2HPO4 (VWR), 0.5 g Urea (VWR), 3 g KNO3 (Prolabo), 10 g saccharose (VWR), 0.5 g MgSO4, 7H2O (Sigma), 0.07 g CaCl2, 2H2O (Prolabo), 0.2 mg MnSO4, H2O (Sigma), 0.6 mg CuSO4, 5H2O (Sigma), 7.9 mg ZnSO4, 7H2O (Sigma), 0.1 mg H3BO3 (Merck), 0.14 mg NaMoO4, 2H2O (Sigma), 2 mg thiamine (Sigma), 0.1 mg biotine (VWR), 4 mg FeSO4, 7H2O (Sigma), QSP 1 liter • Inoculum: spores suspension
Fungicides were solubilized in DMSO and the solution used to prepare the required range of concentrations. The final concentration of DMSO used in the assay was ≤1%.
A spore suspension of F. culmorum was prepared and diluted to the desired spore density.
Fungicides were evaluated for their ability to inhibit spore germination and mycelium growth in liquid culture assay. The compounds were added in the desired concentration to the culture medium with spores. After 5 days incubation, fungi-toxicity of compounds was determined by spectrometric measurement of mycelium growth. Inhibition of fungal growth was determined by comparing the absorbance values in wells containing the fungicides with the absorbance in control wells without fungicides.

The source of these data is patent publication US20250042886A1, “BIS(HETERO)ARYL THIOETHER OXADIAZINES AS FUNGICIDAL COMPOUNDS” (Bayer Aktiengesellschaft, priority 2021, published 2025).

One may read the chromatographic logP as a lipophilicity value derived from retention on a column. Regarding `Cc1ccc(CC2CON=C(c3cc(Cl)nnc3S(=O)(=O)c3cccc(C(F)(F)F)c3)N2)c(C)c1` (racemic) [Compound I-001, (5RS)-3-(6-chloro-3-{[3-(trifluoromethyl)phenyl]sulfonyl}pyridazin-4-yl)-5-(2,4-dimethylbenzyl)-5,6-dihydro-4H-1,2,4-oxadiazine], the chromatographic logP in data set [1] was 4.24. Also, the inhibition at 20 ppm in the data set with Pyricularia oryzae is 90 to 100%.

The molecule `COc1cccc(Sc2cnc(Cl)cc2C2=NOC[C@H](Cc3ccc(Cl)cc3Cl)N2)c1` (racemic) [Compound I-002] gave a chromatographic logP in data set [1] of 4.51. Also, the inhibition at 20 ppm fell in the range of 90 to 100% in data set [2], 90 to 100% in the data set with Botrytis cinerea [3] and 70 to 79% in the data set on Pyricularia oryzae.

In turn, `FC(F)(F)Oc1cccc(Sc2cnc(Cl)cc2C2=NOC[C@H](Cc3ccc(Cl)cc3Cl)N2)c1` (racemic) [Compound I-020] had a chromatographic logP in data set [1] of 5.13. The inhibition at 20 ppm in data set [2] lay within 90 to 100%.

On to `Cc1ccc(C[C@H]2CON=C(c3c(Sc4cccc(OC(F)(F)F)c4)cnc4ccccc34)N2)c(C)c1` (racemic) [Compound I-025], for which the chromatographic logP in data set [1] amounted to 4.73. Also, the inhibition at 20 ppm (in data set [2]; in the data set on Botrytis cinerea [3]) was 90 to 100% each time.

For the molecule `Cc1cccc(Sc2nnc(Cl)cc2C2=NOC[C@@H](Cc3ccc(Cl)cc3Cl)N2)c1` (racemic) [Compound I-028], in data set [1], the LogP was 4.56^[a]. The inhibition at 20 ppm lay within 80 to 89% in data set [2], 70 to 79% in the data set on Pyricularia oryzae and 90 to 100% in the data set with Pyrenophora teres (20 ppm of active ingredient).

For `COc1cccc(Sc2nnc(Cl)cc2C2=NOC[C@@H](Cc3ccc(Cl)cc3Cl)N2)c1` (racemic) [Compound I-034], the chromatographic logP in data set [1] is 4.3. In addition, the inhibition at 20 ppm in data set [2] is 90 to 100%; in the data set with Botrytis cinerea [3], 90 to 100%; in the data set with Pyricularia oryzae, 70 to 79%.

Take `Cc1ccc([C@H]2CON=C(c3c(Sc4ccc(Cl)c(Cl)c4)nnc4ccccc34)N2)s1` (racemic) [Compound I-038]: the pest or weed control at 500 ppm in the data set on Botrytis cinerea [4] lay within 70 to 79%. The chromatographic logP in data set [1] came out at 4.04. In addition, the inhibition at 50 µM with Botrytis cinerea [3] lay within 90 to 100%.

`CCOc1cccc(Sc2nnc3ccccc3c2C2=NOC[C@H](c3ccc(C)s3)N2)c1` (racemic) [Compound I-040] displayed a chromatographic logP in data set [1] of 3.55. Moreover, the inhibition at 50 µM in data set [2] lay within 90 to 100%; with Fusarium culmorum, 80 to 89%; in the data set on Botrytis cinerea [3], 70 to 79%.

As to `Cc1ccc([C@@H]2CON=C(c3c(Sc4ccccc4C)nnc(C)c3C)N2)s1` (racemic) [Compound I-045], the pest or weed control at 500 ppm in the data set with Botrytis cinerea [4] is 80 to 89%. The molecule further gave a chromatographic logP in data set [1] of 2.94. Besides, the inhibition at 50 µM in the data set with Botrytis cinerea [3] was in the range of 80 to 89%.

In data set [1], `CCOc1cccc(Sc2nnc(C)c(C)c2C2=NOC[C@@H](c3cc(C)sc3C)N2)c1` (racemic) [Compound I-046] came in with a chromatographic logP of 3.44. Further, in data set [2], the inhibition at 50 µM is 80 to 89%.

With `Cc1cc([C@@H]2CON=C(c3c(Sc4cccc(OC(F)(F)F)c4)nnc(C)c3C)N2)c(C)s1` (racemic) [Compound I-047], the chromatographic logP in data set [1] amounted to 3.83. Also, the inhibition at 50 µM in data set [2] lay within 90 to 100%.

Take `Cc1ccc([C@H]2CON=C(c3c(Sc4ccc(F)cc4F)nnc4ccccc34)N2)s1` (racemic) [Compound I-048]: the pest or weed control at 500 ppm in the data set on Botrytis cinerea [4] fell in the range of 90 to 100%. The molecule further yielded a chromatographic logP in data set [1] of 3.4. Moreover, the inhibition at 50 µM in the data set with Botrytis cinerea [3] lay within 90 to 100%.

In the case of `Cc1ccc([C@@H]2CON=C(c3c(Sc4cccc(OC(F)(F)F)c4)nnc(C)c3C)N2)s1` (racemic) [Compound I-055], the pest or weed control at 500 ppm in the data set on Botrytis cinerea [4] fell in the range of 70 to 79%. The molecule further came in with a chromatographic logP in data set [1] of 3.48. Further, the results for the inhibition at 50 µM (in data set [2]; in the data set with Botrytis cinerea [3]) were 90 to 100% and 80 to 89%, respectively.

On to `CCOc1cccc(Sc2nnc(C)c(C)c2C2=NOC[C@@H](c3ccc(C)s3)N2)c1` (racemic) [Compound I-074], for which the chromatographic logP in data set [1] came to 3.09. In data set [2], the inhibition at 50 µM is 90 to 100%.

As to `Cc1ccc([C@H]2CON=C(c3c(Sc4ccc(F)c(Cl)c4)nnc(C)c3C)N2)s1` (racemic) [Compound I-083], the chromatographic logP in data set [1] amounted to 3.26. Also, the inhibition at 50 µM (in data set [2]; with Botrytis cinerea [3]) was 90 to 100% throughout.

On to `COc1cccc(Sc2nnc(C)c(C)c2C2=NOC[C@@H](c3ccc(C)s3)N2)c1` (racemic) [Compound I-084], for which, in data set [1], the chromatographic logP was 2.77. Further, the figures for the inhibition at 50 µM (in data set [2]; with Botrytis cinerea [3]) were 90 to 100% and 70 to 79%, respectively.

Turning to `Cc1ccc([C@H]2CON=C(c3c(Sc4ccc(F)c(F)c4)nnc(C)c3C)N2)s1` (racemic) [Compound I-085], the pest or weed control at 500 ppm in the data set on Botrytis cinerea [4] is 90 to 100%. This molecule registered a chromatographic logP in data set [1] of 2.99. Also, the inhibition at 50 µM with Fusarium culmorum lay within 70 to 79%; in the data set on Botrytis cinerea [3] it was 90 to 100%.

Turning to `Cc1cc([C@@H]2CON=C(c3c(Sc4cccc(C(F)(F)F)c4)nnc(C)c3C)N2)c(C)s1` (racemic) [Compound I-086, (5R,S)-(2,5-dimethyl-3-thienyl)-3-(5,6-dimethyl-3-{[3-(trifluoromethyl)phenyl]sulfanyl}pyridazin-4-yl)-5,6-dihydro-4H-1,2,4-oxadiazine], the chromatographic logP in data set [1] stood at 3.72. The inhibition at 50 µM in data set [2] fell in the range of 90 to 100%; in the data set on Botrytis cinerea [3], 90 to 100%; in the data set with Pyricularia oryzae (read-out: efficacy (inhibition of fungal growth), 50 μMol/l of active ingredient, liquid culture, 5 days incubation), 70 to 79%; in the data set on Pyrenophora teres (50 μMol/l of active ingredient), 90 to 100%.

Regarding `Cc1ccc(Sc2nnc(C)c(C)c2C2=NOC[C@@H](c3cc(C)sc3C)N2)cc1` (racemic) [Compound I-099], the pest or weed control at 500 ppm with Botrytis cinerea [4] was 70 to 79%. In data set [1], this molecule displayed a chromatographic logP of 3.36. Besides, the inhibition at 50 µM in data set [2] fell in the range of 70 to 79%; with Botrytis cinerea [3] it was 80 to 89%.

In data set [1], `Cc1ccc([C@@H]2CON=C(c3c(Sc4cccc5ccccc45)nnc4ccccc34)N2)s1` (racemic) [Compound I-102] came in with a chromatographic logP of 3.8. Moreover, the inhibition at 50 µM (in data set [2]; in the data set on Botrytis cinerea [3]) was 80 to 89% in each case.

In data set [1], `Cc1ccc(Sc2nnc(C)c(C)c2C2=NOC[C@@H](c3ccc(C)s3)N2)c(C)c1` (racemic) [Compound I-126] yielded a chromatographic logP of 3.28. Moreover, in data set [2], the inhibition at 50 µM was 70 to 79%.

In the case of `Cc1cccc(Sc2nnc(C)c(C)c2C2=NOC[C@H](c3ccc(C)s3)N2)n1` (racemic) [Compound I-127], the pest or weed control at 500 ppm with Botrytis cinerea [4] fell in the range of 80 to 89%. In data set [1], the chromatographic logP was 2.21.
